# Test results as given in patent US10258040B2, “Use of combinations comprising host defense inducers and biological control agents for controlling bacterial harmful organisms in useful plants” (Bayer CropScience Aktiengesellschaft, priority 2013, dated 2019).
# Columns and labels:
# [1] = tested on: Pseudomonas syringae pv. tomato; assay: in vivo preventive test on Pseudomonas syringae pv. tomato (tomatoes); details: sprayed one week before inoculation, evaluated 1 week after inoculation
# Method: When the percentage of inhibition observed for the combination is greater than E, there is a synergistic effect. • Solvent: deionized water • tested compounds: […] To test for preventive activity, young plants are sprayed with the prepared compounds at three different rates of application. One week after application, the plants are inoculated with an aqueous suspension of Pseudomonas syringae pv. tomato. Inoculated plants are placed in a greenhouse chamber at 25° C. at a relative atmospheric humidity of 90%.
# Potato = assay: potato field seed/soil treatment test: plant and stem number, tuber weight, tuber grading; details: T2: dose 12/100 kg seed, ST
# Method: (§1) • Solvent: water • Tested compounds: Isotianil (FS200 formulation) at 30/24/12 ml/100 KG Potato Seed • Penflufen (Emesto FS240 formulation) at 10 ml/100 KG Potato Seed • Serenade ASO (Bacillus subtilis QST 713 strain/SC/1.34%) 5 Litres/ha (200 ml/area sown under 100 KG Seed)
# (§2) To test for seed (tuber) treatment activity mixtures of Isotianil FS200 and Serenade ASO SC in combination with an optional further fungicide, ie Potato tubers are selected having reasonable Streptomyces scabies infestation. Seed was treated by spray on the tubers with hand knapsack sprayer using total volume of slurry 1500 ml/100 Kg Seed. Seed treatment was done with Isotianil FS 200 alone and in tank-mix with Penflufen.
# (§3) Serenade ASO SC 1.34% @ 5000 ml/ha of formulated product was sprayed in the furrows just before the sowing of seeds. 100 KG seeds are sown on an area of 400 m^2 and Serenade ASO @ 200 ml formulated product was used in this test. Seed treated with Isotianil and optional Penflufen as method described above was used in combination with soil application of Serenade ASO in furrows before sowing. This study was conducted in natural field conditions chamber and observations for Streptomyces scabies infestation on potato was taken at the time of harvest.
# (§4) The test is evaluated at harvest of potato crop.
# Streptomyces scabies = assay: in vivo preventive (seed growth test) test on Streptomyces scabies (potato), scab efficacy at harvest; details: T2: dose 12/100 kg seed, ST, natural field conditions
# Method: as §1, §2, §3, §4
structure (smiles),measurement,setting,value
"N#Cc1ccccc1NC(=O)c1snc(Cl)c1Cl [(A.2) Isotianil, isotianil]",Efficacy in % found,[1]; application rate 50 g a.i.,6%
same,Efficacy in % found,[1]; application rate 100 g a.i.,0%
same,Efficacy in % found,[1]; application rate 200 g a.i.,0%
same,% age Grading Large,Potato; potato tubers at harvest,34%
same,% age Grading Small,Potato; potato tubers at harvest,29%
same,% age Grading medium,Potato; potato tubers at harvest,37%
same,"% age increase/dicrease over conrol, No. of Plants/5 meter","Potato; potato, field",3%
same,"% age increase/dicrease over conrol, No. of stems/meter","Potato; potato, field",7%
same,"% age increase/dicrease over conrol, Weight of tuber/5 meter","Potato; potato, field",11%
same,% age Efficacy Scab,Streptomyces scabies,68%
